From patent publication US7268128B2, “1,3,5-trisubstituted-5-phenyl and 5-pyridyl pyrazolopyrimidinone derivatives having PDE7 inhibiting action” (Ausbio Pharma Co., Ltd., priority 2001, dated 2007)
Counter-ions that a name gives are not always drawn.

Target: T1, PDE7 (type VII phosphodiesterase) (Homo sapiens, UniProt Q13946)
T1 construct: endogenous in cells; host or cells: MOLT-4 (ATCC CRL-1582), soluble fraction, HiTrapQ anion-exchange fraction
Experiment: PDE7 inhibiting activity (3H-cAMP hydrolysis, active fraction from MOLT-4 cells)
Assay type: biochemical
Conditions: PDE7 fraction from MOLT-4 cells, 0.064 μM cAMP, 10 μM rolipram present, 2 hours at 25° C.; read-out: IC50 values for phosphodiesterase inhibiting activities (PDE7)
Outline: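 Read-out: supernatant radioactivity after twice-repeated QAE-Sephadex treatment of a 2 h, 25° C reaction (3H-cAMP at 0.064 μM cAMP, 10 μM rolipram, 5′-nucleotidase, 1 mM MgCl2, pH 7.5). Enzyme is an anion-exchange-purified fraction from MOLT-4 T cells. IC50 taken as half-maximal inhibition.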

T1 sequence (Q13946 whole entry): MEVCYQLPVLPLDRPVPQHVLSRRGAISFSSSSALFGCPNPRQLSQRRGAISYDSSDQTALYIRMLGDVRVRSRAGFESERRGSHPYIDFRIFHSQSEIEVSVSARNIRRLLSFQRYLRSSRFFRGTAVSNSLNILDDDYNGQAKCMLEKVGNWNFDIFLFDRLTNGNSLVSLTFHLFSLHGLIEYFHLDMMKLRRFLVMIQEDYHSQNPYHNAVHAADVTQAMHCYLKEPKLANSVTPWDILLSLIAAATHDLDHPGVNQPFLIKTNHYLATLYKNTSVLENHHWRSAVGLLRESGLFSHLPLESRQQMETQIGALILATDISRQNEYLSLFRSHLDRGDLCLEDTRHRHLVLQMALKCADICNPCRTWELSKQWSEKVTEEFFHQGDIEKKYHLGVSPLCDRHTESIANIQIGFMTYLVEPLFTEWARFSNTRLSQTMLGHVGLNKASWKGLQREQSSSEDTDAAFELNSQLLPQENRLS

SMILES	IC50 [nM]
COc1ccc(F)cc1-c1nc2c(c(C3CCCCC3)nn2C)c(=O)[nH]1 [Example 74, 3-Cyclohexyl-6-(5-fluoro-2-methoxyphenyl)-1-methyl-1,5-dihydro-4H-pyrazolo[3,4-d]pyrimidin-4-one]	≤ 1000
Cc1nn(C2CCCCC2)c2c(=O)[nH]c(-c3ccccc3)nc12 [Example 1, 1-Cyclohexyl-3-methyl-5-phenyl-1,6-dihydro-7H-pyrazolo[4,3-d]pyrimidin-7-one]	≤ 1000
COc1cc(N(C)C(C)=O)ccc1-c1nc2c(c(C3CCCCC3)nn2C)c(=O)[nH]1 [Example 146, N-[4-(3-cyclohexyl-1-methyl-4-oxo-4,5-dihydro-1H-pyrazolo[3,4-d]pyrimidin-6-yl)-3-methoxyphenyl]-N-methylacetamide]	≤ 1000
CNc1ccc(-c2nc3c(c(C4CCCCC4)nn3C)c(=O)[nH]2)c(OC)c1 [Example 47, 3-Cyclohexyl-6-[2-methoxy-4-(methylamino)phenyl]-1-methyl-1,5-dihydro-4H-pyrazolo[3,4-d]pyrimidin-4-one]	≤ 10
COc1cc(N2CCC(C(=O)O)CC2)ccc1-c1nc2c(c(C3CCCCC3)nn2C)c(=O)[nH]1 [Example 76]	≤ 10
COc1cc(N2CCCNCC2)ccc1-c1nc2c(c(C3CCCCC3)nn2C)c(=O)[nH]1 [Example 134, 3-Cyclohexyl-6-[4-(1,4-diazepan-1-yl)-2-methoxyphenyl]-1-methyl-1,5-dihydro-4H-pyrazolo[3,4-d]pyrimidin-4-one monomethanesulfonate]	≤ 10
CCOc1cc(N2CCN(C)CC2)ccc1-c1nc2c(c(C3CCCCC3)nn2C)c(=O)[nH]1 [Example 87, 3-Cyclohexyl-6-[2-ethoxy-4-(4-methyl-1-piperazinyl)phenyl]-1-methyl-1,5-dihydro-4H-pyrazolo[3,4-d]pyrimidin-4-one monomethanesulfonate]	≤ 10
COc1cc(N2CCCN(C)CC2)ccc1-c1nc2c(C)nn(C3CCCCC3)c2c(=O)[nH]1 [Example 112, 1-Cyclohexyl-5-[2-methoxy-4-(4-methyl-1,4-diazepan-1-yl)phenyl]-3-methyl-1,6-dihydro-7H-pyrazolo[4,3-d]pyrimidin-7-one]	≤ 1000
COc1cc(N2CCC(OC)CC2)ccc1-c1nc2c(c(C3CCCCC3)nn2C)c(=O)[nH]1 [Example 62, 3-Cyclohexyl-6-[2-methoxy-4-(4-methoxy-1-piperidinyl)phenyl]-1-methyl-1,5-dihydro-4H-pyrazolo[3,4-d]pyrimidin-4-one monomethanesulfonate]	≤ 10
COc1cc(N2CCN(C)CC2)ccc1-c1nc2c(c(C3CCCCC3)nn2C)c(=O)[nH]1 [Example 28, 3-Cyclohexyl-6-[2-methoxy-4-(4-methyl-1-piperazinyl)phenyl]-1-methyl-1,5-dihydro-4H-pyrazolo[3,4-d]pyrimidin-4-one monomethanesulfonate]	≤ 10
COc1cc(N(C)CCN(C)C)ccc1-c1nc2c(c(C3CCCCC3)nn2C)c(=O)[nH]1 [Example 132, 3-Cyclohexyl-6-{4-[[2-(dimethylamino)ethyl](methyl)amino]-2-methoxyphenyl}-1-methyl-1,5-dihydro-4H-pyrazolo[3,4-d]pyrimidin-4-one monomethanesulfonate]	≤ 10
CCN1CCCN(c2ccc(-c3nc4c(C)nn(C5CCCCC5)c4c(=O)[nH]3)c(OC)c2)CC1 [Example 127, 1-Cyclohexyl-5-[4-(4-ethyl-1,4-diazepan-1-yl)-2-methoxyphenyl]-3-methyl-1,6-dihydro-7H-pyrazolo[4,3-d]pyrimidin-7-one]	≤ 1000
COc1cc(N2CCC(O)CC2)ccc1-c1nc2c(c(C3CCCCC3)nn2C)c(=O)[nH]1 [Example 32, 3-Cyclohexyl-6-[4-(4-hydroxy-1-piperidinyl)-2-methoxyphenyl]-1-methyl-1,5-dihydro-4H-pyrazolo[3,4-d]pyrimidin-4-one monomethanesulfonate]	≤ 10
COc1cc(N2CCC(O)CC2)ccc1-c1nc2c(c(C3CCCCC3)nn2C)c(=O)[nH]1 [Example 31, 3-Cyclohexyl-6-[4-(4-hydroxy-1-piperidinyl)-2-methoxyphenyl]-1-methyl-1,5-dihydro-4H-pyrazolo[3,4-d]pyrimidin-4-one]	≤ 10
COCC(=O)Nc1ccc(-c2nc3c(c(C4CCCCC4)nn3C)c(=O)[nH]2)c(OC)c1 [Example 46, N-[4-(3-cyclohexyl-1-methyl-4-oxo-4,5-dihydro-1H-pyrazolo[3,4-d]pyrimidin-6-yl)-3-methoxyphenyl]-2-methoxyacetamide]	≤ 10

Other lines, results leading:

IC50 [nM]	SMILES
≤ 1000	COc1cc(CN2CCC(C(=O)O)CC2)ccc1-c1nc2c(C)nn(C3CCCCC3)c2c(=O)[nH]1 [Example 239, 1-[4-(1-Cyclohexyl-3-methyl-7-oxo-6,7-dihydro-1H-pyrazolo[4,3-d]pyrimidin-5-yl)-3-methoxybenzyl]-4-piperidinecarboxylic acid]
≤ 1000	COc1cc(S(=O)(=O)N(C)CCN(C)C)ccc1-c1nc2c(c(C3CCCCC3)nn2C)c(=O)[nH]1 [Example 158, 4-(3-Cyclohexyl-1-methyl-4-oxo-4,5-dihydro-1H-pyrazolo[3,4-d]pyrimidin-6-yl)-N-(2-(dimethylamino)ethyl)-3-methoxy-N-methylbenzenesulfonamide monomethanesulfonate]
≤ 10	CCOc1cc(NCCOC)ccc1-c1nc2c(C)nn(C3CCCCC3)c2c(=O)[nH]1 [Example 263, 1-Cyclohexyl-5-{2-ethoxy-4-[(2-methoxyethyl)amino]phenyl}-3-methyl-1,6-dihydro-7H-pyrazolo[4,3-d]pyrimidin-7-one]
≤ 1000	COc1cc(C2=CCNCC2)ccc1-c1nc2c(C)nn(C3CCCCC3)c2c(=O)[nH]1 [Example 273, 1-Cyclohexyl-5-[2-methoxy-4-(1,2,3,6-tetrahydro-4-pyridinyl)phenyl]-3-methyl-1,6-dihydro-7H-pyrazolo[4,3-d]pyrimidin-7-one monohydrochloride]
≤ 1000	CCOc1cc(S(=O)(=O)N2CCC(O)CC2)ccc1-c1nc2c(C)nn(C3CCCCC3)c2c(=O)[nH]1 [Example 257, 1-Cyclohexyl-5-{2-ethoxy-4-[(4-hydroxy-1-piperidinyl)sulfonyl]phenyl}-3-methyl-1,6-dihydro-7H-pyrazolo[4,3-d]pyrimidin-7-one]
≤ 1000	COc1cc(S(=O)(=O)N2CCCN(C)CC2)ccc1-c1nc2c(C)nn(C3CCCCC3)c2c(=O)[nH]1 [Example 198, 1-Cyclohexyl-5-{2-methoxy-4-[(4-methyl-1,4-diazepan-1-yl)sulfonyl]phenyl}-3-methyl-1,6-dihydro-7H-pyrazolo[4,3-d]pyrimidin-7-one]
≤ 1000	COCCNCc1ccc(-c2nc3c(C)nn(C4CCCCC4)c3c(=O)[nH]2)c(OC)c1 [Example 237, 1-Cyclohexyl-5-(2-methoxy-4-{[(2-methoxyethyl)amino]methyl}phenyl)-3-methyl-1,6-dihydro-7H-pyrazolo[4,3-d]pyrimidin-7-one]
≤ 10	CCOc1cc(N2CCC(N(C)C)CC2)ccc1-c1nc2c(C)nn(C3CCCCC3)c2c(=O)[nH]1 [Example 250, 1-Cyclohexyl-5-{4-[4-(dimethylamino)-1-piperidinyl]-2-ethoxyphenyl}-3-methyl-1,6-dihydro-7H-pyrazolo[4,3-d]pyrimidin-7-one]
≤ 10	COc1cc(NC(=O)N2CCOCC2)ccc1-c1nc2c(c(C3CCCCC3)nn2C)c(=O)[nH]1 [Example 148, N-[4-(3-cyclohexyl-1-methyl-4-oxo-4,5-dihydro-1H-pyrazolo[3,4-d]pyrimidin-6-yl)-3-methoxyphenyl]-4-morpholinecarboxamide]
≤ 1000	CCOc1cc(N2CCN(C)CC2)ccc1-c1nc2c(C)nn(C3CCCCC3)c2c(=O)[nH]1 [Example 264, 1-Cyclohexyl-5-[2-ethoxy-4-(4-methyl-1-piperazinyl)phenyl]-3-methyl-1,6-dihydro-7H-pyrazolo[4,3-d]pyrimidin-7-one]
≤ 1000	COc1cc(S(=O)(=O)N2CCC(O)C2)ccc1-c1nc2c(c(C3CCCCC3)nn2C)c(=O)[nH]1 (stereo not shown) [Example 164, 3-Cyclohexyl-6-{4-[(3-hydroxy-1-pyrrolidinyl)sulfonyl]-2-methoxyphenyl}-1-methyl-1,5-dihydro-4H-pyrazolo[3,4-d]pyrimidin-4-one]
≤ 1000	COc1cc(S(=O)(=O)N2CCC(O)CC2)ccc1-c1nc2c(C)nn(C3CCCCC3)c2c(=O)[nH]1 [Example 199, 1-Cyclohexyl-5-{4-[(4-hydroxy-1-piperidinyl)sulfonyl]-2-methoxyphenyl}-3-methyl-1,6-dihydro-7H-pyrazolo[4,3-d]pyrimidin-7-one]
≤ 1000	COc1cc(S(=O)(=O)N(C)CCO)ccc1-c1nc2c(c(C3CCCCC3)nn2C)c(=O)[nH]1 [Example 156, 4-(3-Cyclohexyl-1-methyl-4-oxo-4,5-dihydro-1H-pyrazolo[3,4-d]pyrimidin-6-yl)-N-(2-hydroxyethyl)-3-methoxy-N-methylbenzenesulfonamide]
≤ 10	COc1cc(NCCN(C)C)ccc1-c1nc2c(C)nn(C3CCCCC3)c2c(=O)[nH]1 [Example 230, 1-Cyclohexyl-5-(4-{[2-(dimethylamino)ethyl]amino}-2-methoxyphenyl)-3-methyl-1,6-dihydro-7H-pyrazolo[4,3-d]pyrimidin-7-one]
≤ 1000	CNS(=O)(=O)c1ccc(-c2nc3c(C)nn(C4CCCCC4)c3c(=O)[nH]2)c(OC)c1 [Example 201, 4-(1-Cyclohexyl-3-methyl-7-oxo-6,7-dihydro-1H-pyrazolo[4,3-d]pyrimidin-5-yl)-3-methoxy-N-methylbenzenesulfonamide]
≤ 1000	CCOc1cc(N2CCNCC2)ccc1-c1nc2c(C)nn(C3CCCCC3)c2c(=O)[nH]1 [Example 268, 1-Cyclohexyl-5-[2-ethoxy-4-(1-piperazinyl)phenyl]-3-methyl-1,6-dihydro-7H-pyrazolo[4,3-d]pyrimidin-7-one]
